Source: patent publication US5082943A, “Novel imidazole derivatives” (Nippon Chemiphar Co., Ltd., priority 1988, dated 1992)

Legend:
[1] = biological target: T1, H^+ +K^+ ATPase (Sus scrofa, UniProt P19156); assay: H+ + K+ ATPase inhibitory effects (b) pig gastric mucosa; type: biochemical; settings: pig gastric mucosa vesicle; incubated 37° C., 30 min, pH 5.5; read-out: H+ + K+ ATPase inhibitory action (IC50)
T1 construct: Gastric acid secretory cells of a pig gastric mucosa were isolated; from tissue; host or cells: pig gastric mucosa, vesicles from gastric acid secretory cells (Ficoll density gradient)
T1 sequence (P19156 2-1034 limits assumed): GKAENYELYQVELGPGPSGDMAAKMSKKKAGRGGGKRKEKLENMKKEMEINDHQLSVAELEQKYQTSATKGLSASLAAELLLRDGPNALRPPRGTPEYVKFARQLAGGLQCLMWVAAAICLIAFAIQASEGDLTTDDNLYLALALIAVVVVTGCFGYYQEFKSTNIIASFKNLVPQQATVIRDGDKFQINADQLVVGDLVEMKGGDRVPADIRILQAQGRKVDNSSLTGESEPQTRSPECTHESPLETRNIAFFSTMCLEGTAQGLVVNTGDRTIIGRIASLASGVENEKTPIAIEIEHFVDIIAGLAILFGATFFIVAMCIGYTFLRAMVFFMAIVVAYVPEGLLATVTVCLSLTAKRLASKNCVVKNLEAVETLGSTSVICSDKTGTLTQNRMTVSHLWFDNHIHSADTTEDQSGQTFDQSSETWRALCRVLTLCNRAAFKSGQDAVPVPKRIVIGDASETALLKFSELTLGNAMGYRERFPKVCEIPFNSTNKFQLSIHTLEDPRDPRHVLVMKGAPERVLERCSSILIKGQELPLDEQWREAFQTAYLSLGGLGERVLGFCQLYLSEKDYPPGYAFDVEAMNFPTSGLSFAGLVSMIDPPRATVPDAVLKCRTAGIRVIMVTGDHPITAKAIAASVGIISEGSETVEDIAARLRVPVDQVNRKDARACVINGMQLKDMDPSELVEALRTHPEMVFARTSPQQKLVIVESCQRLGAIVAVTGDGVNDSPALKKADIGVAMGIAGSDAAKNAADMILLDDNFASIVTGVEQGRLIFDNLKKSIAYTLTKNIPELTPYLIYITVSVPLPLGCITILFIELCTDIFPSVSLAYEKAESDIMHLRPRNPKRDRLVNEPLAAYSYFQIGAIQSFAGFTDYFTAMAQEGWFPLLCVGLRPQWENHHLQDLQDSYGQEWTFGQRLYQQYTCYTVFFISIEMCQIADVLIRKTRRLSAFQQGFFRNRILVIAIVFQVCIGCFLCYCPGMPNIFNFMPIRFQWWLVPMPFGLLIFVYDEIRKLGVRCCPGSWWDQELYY
T1 sequence (P18434 whole entry partner): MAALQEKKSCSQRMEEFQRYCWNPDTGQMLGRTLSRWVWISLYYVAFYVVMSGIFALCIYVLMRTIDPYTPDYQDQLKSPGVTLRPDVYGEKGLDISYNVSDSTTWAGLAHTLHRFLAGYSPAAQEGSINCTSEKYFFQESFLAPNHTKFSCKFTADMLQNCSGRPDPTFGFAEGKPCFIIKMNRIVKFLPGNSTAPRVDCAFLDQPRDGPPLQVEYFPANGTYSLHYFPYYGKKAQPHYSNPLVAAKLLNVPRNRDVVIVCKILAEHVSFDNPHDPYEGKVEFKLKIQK
Description: Gastric acid secretory cells of a pig gastric mucosa were isolated in the same manner as in the test for rabbit gastric mucosa. A vesicle containing H^+ +K^+ ATPase was prepared by centrifuging the cells in Ficoll of discontinuous density gradient. The enzyme and each test compound were incubated at 37° C. for 30 min. in a solution which contained 2 mM of a bisTRIS-acetate buffer (pH 5.5). To the resulting mixture were added a solution of 37.5 mM of bisTRIS-acetate buffer solution (pH 7.4), 2 mM of magnesium chloride, 2 mM of ATP and 5 mM of potassium chloride, and the mixture was then heated to 37° C. for 10 min. for performing a reaction. The reaction was terminated by addition of 5% trichloroacetic acid solution, and an inorganic phosphorus liberated was quantitatively measured by Fiske-Subbarow method. The ATPase activity was determined from the obtained inorganic phosphorus value.
(§1) The above procedure was repeated except for not using potassium chloride to determine an ATPase activity in the absence of potassium chloride.
The desired […] ATPase activity was calculated by subtracting the ATPase activity value determined in the absence of KCl from the ATPase activity value determined in the presence of KCl.

[2] = test system: secretion of gastric acid; assay: Inhibitory action against the secretion of gastric acid (Test I), pylorus ligated rats; type: in vivo, Male Donryu rats; settings: rat, pylorus ligation, intraduodenal, 4 hours, acid output vs control
Description: Male Donryu rats having a body weight of 200 to 250 g were fasted (while allowing free access to water) for 24 hrs. in accordance with the conventional method [Shay, H. et al, Gastroenterology, 5, 43-61 (1945)]. Under ether anesthesia the pylorus was ligated and each test compound was administered intraduodenally. Four hours later, each rat was killed and the stomach was removed to collect the gastric juice. The inhibitory action was determined by comparing the acid output which was determined by titration to pH 7.0 with 0.1-N NaOH by means of an automatic titrator, with the corresponding value of control rat prepared in the same manner except that a vehicle alone was administered.

[3] = test system: secretion of gastric acid; assay: Inhibitory action against the secretion of gastric acid (Test II), Heidenhain pouch dogs, histamine stimulated; type: in vivo, male beagle dogs; settings: Canis lupus familiaris, Heidenhain pouch dog, histamine 160 ug/kg/hr, intravenous, read-out: Suppresive action on secretion of gastric acid (%)
Description: Heidenhain pouch dogs produced from male beagle dogs were fasted. To the dogs were then administered intarvenously histamine hydrochloride (gastric juice secretion inducing agent) continuously at a dose of 160 ug/kg/hr. The gastric juice was collected at an interval of 15 min. to measure the amount of gastric juice and acid output to determine an acid secretion amount (mEq/15 min).
The test compound was intravenously administered to the dogs at one hour after the initiation of histamine administration.
The inhibitory action was determined by comparing the acid secretion amount, with the corresponding amount of a control dog prepared in the same manner except that a vehicle alone was administered.

[4] = biological target: T2, H^+ +K^+ ATPase (Oryctolagus cuniculus, UniProt P27112); assay: H+ + K+ ATPase inhibitory effects (a) rabbit gastric mucosa; type: biochemical; settings: rabbit gastric mucosa vesicle; 2×10^-4 M test compound, pH 6.0, 25 min preincubation; read-out: H+ + K+ ATPase inhibitory action (%)
T2 construct: gastric acid secretory cells of a rabbit gastric mucosa were isolated; from tissue; host or cells: rabbit gastric mucosa, vesicles from gastric acid secretory cells (Ficoll density gradient)
T2 sequence (P27112 2-1035 limits assumed): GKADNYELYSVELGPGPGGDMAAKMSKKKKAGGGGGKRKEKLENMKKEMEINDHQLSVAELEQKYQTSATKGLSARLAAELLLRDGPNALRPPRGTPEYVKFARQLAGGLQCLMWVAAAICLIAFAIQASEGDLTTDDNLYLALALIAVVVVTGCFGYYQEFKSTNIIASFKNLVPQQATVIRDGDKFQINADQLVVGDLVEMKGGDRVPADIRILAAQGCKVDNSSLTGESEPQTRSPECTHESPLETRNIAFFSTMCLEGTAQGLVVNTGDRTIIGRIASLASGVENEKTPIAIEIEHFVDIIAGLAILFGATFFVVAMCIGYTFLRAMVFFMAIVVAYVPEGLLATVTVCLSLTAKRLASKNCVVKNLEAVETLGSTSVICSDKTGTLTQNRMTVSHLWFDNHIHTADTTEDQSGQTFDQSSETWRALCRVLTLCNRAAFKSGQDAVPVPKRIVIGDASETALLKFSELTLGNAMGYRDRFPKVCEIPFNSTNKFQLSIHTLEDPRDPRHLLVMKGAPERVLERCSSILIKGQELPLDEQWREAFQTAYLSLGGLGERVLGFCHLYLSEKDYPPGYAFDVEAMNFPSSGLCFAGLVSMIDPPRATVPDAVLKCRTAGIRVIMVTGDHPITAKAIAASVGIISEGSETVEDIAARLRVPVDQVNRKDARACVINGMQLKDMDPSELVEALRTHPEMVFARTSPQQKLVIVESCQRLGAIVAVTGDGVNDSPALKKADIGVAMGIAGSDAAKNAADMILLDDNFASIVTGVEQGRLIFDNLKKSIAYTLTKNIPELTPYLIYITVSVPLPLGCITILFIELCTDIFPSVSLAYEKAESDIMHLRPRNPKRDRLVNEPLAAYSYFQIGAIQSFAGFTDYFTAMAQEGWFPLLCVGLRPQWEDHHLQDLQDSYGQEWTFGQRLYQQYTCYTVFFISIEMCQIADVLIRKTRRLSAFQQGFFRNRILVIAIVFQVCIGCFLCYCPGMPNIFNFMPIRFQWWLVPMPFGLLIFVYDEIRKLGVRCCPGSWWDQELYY
T2 sequence (P18597 whole entry partner): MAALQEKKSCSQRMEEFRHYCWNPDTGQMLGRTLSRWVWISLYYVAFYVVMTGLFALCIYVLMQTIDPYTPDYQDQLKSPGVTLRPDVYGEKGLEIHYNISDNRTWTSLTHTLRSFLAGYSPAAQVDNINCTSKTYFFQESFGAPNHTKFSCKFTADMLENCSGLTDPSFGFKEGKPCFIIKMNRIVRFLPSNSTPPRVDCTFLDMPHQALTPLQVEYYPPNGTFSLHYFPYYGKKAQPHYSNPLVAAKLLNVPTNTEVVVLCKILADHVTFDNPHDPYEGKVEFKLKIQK
Description: Following the method of Forte et al (J. Applied Physiol., 32, 714-717 (1972)), gastric acid secretory cells of a rabbit gastric mucosa were isolated. A vesicle containing H^+ +K^+ ATPase was prepared by centrifuging the cells in Ficoll of discontinuous density gradient. After the enzyme was incubated at room temperature for 25 min. in 0.5 ml of a solution which contained 5 mM of an imidazole buffer (pH 6.0) and 2×10^-4 M of each test compound, the mixture was heated to 37° C. The mixture was then allowed to stand for further 5 min. To the mixture was added 0.5 ml of a solution which contained 4 mM of magnesium chloride, 80 mM of an imidazole buffer (pH 7.4), 20 mM of potassium chloride and 4 mM of ATP. The resulting mixture was reacted at 37° C. for 15 min. and 1 ml of a 24% trichloroacetic acid was then added to terminate the reaction. The inorganic phosphorus liberated was quantitatively determined by the method proposed by Taussky and Shorr (J. Biol. Chem., 202, […] (1953)). The ATPase activity was determined from the obtained inorganic phosphorus value.
as §1
The desired K^+ -dependent ATPase activity was calculated by subtracting the ATPase activity value determined in the absence of KCl from the ATPase activity value determined in the presence of KC1.

[5] = test system: rats; assay: Acute toxicity test, rats; type: in vivo; settings: oral, 45 mg/kg/day for two weeks
Description: (§2) 2-[(2-Isobutylamino)benzylsulfinyl]imidazole (Example No. 10) was orally administered to rats and beagle dogs at a dose of 45 mg/kg/day for two weeks.

[6] = test system: beagle dogs; assay: Acute toxicity test, beagle dogs; type: in vivo; settings: oral, 45 mg/kg/day for two weeks
Description: as §2

For `CNc1ccccc1C[S+]([O-])c1ncc[nH]1` (stereo not shown) [Example No. 8, 2-(2-methylaminobenzylsulfinyl)imidazole], the IC50 [1] was 2800 nM.
With `Cc1cccc(NCC(C)C)c1C[S+]([O-])c1ncc[nH]1` (stereo not shown) [Example No. 45, 2-[(2-isobutylamino-6-methyl)benzylsulfinyl]imidazole] the “Suppresive action on secretion of gastric acid (%)” value (“Suppresive action … (%)” for short) ([2]; 10 mg/kg) was 86.8%, the “Suppresive action … (%)” value ([2]; 30 mg/kg) was 90.3% and the inhibition in vivo at 1 mg/kg [3] was 82%.
With `CC(C)Nc1ccccc1C[S+]([O-])c1ncc[nH]1` (stereo not shown) [Example No. 23, 2-[(2-isopropylamino)benzylsulfinyl]imidazole] the inhibition in vivo at 3 mg/kg [3] was 66%.
In the case of `COc1cccc(NCC(C)C)c1C[S+]([O-])c1ncc[nH]1` (stereo not shown) [Example No. 41, 2-[(2-isobutylamino-6-methoxy)benzylsulfinyl]imidazole], the inhibition in vivo at 1 mg/kg [3] is reported as 66% and the inhibition in vivo at 3 mg/kg [3] is reported as 97%.
In the case of `COc1ccc(NCC(C)C)c(C[S+]([O-])c2ncc[nH]2)c1` (stereo not shown) [Example No. 29, 2-[(2-isobutylamino-5-methoxy)benzylsulfinyl]imidazole], the “Suppresive action … (%)” value ([2]; 10 mg/kg) is reported as 30.8%, the “Suppresive action … (%)” value ([2]; 30 mg/kg) is reported as 89.0% and the inhibition in vivo at 1 mg/kg [3] is reported as 30%. It also gave an inhibition in vivo at 3 mg/kg [3] of 81%.
With `CNc1ccccc1C[S+]([O-])c1nc2c([nH]1)CCCC2` (stereo not shown) [Example No. 2, 2-(2-methylaminobenzylsulfinyl)-4,5,6,7-tetrahydro-1H-benzimidazole] the IC50 [1] was 1800 nM and the inhibition in vivo at 3 mg/kg [3] was 53%.
For `CCNc1ccccc1C[S+]([O-])c1ncc[nH]1` (stereo not shown) [Example No. 25, 2-[(2-ethylamino)benzylsulfinyl]imidazole], the inhibition at 200 µM [4] was 87.5%, the “Suppresive action … (%)” value ([2]; 10 mg/kg) was 74.0% and the “Suppresive action … (%)” value ([2]; 30 mg/kg) was 93.3%. It also gave an inhibition in vivo at 3 mg/kg [3] of 80%.
`CNc1cccc(C)c1C[S+]([O-])c1ncc[nH]1` (stereo not shown) [Example No. 33, 2-[(2-methyl-6-methylamino)benzylsulfinyl]imidazole] was tested, and the “Suppresive action … (%)” value ([2]; 10 mg/kg) was 92.9%, the “Suppresive action … (%)” value ([2]; 30 mg/kg) was 91.4% and the inhibition in vivo at 1 mg/kg [3] was 70%.
For `[O-][S+](Cc1ccccc1NCc1ccccc1)c1ncc[nH]1` (stereo not shown) [Example No. 27, 2-[(2-benzylamino)benzylsulfinyl]imidazole], the inhibition in vivo at 3 mg/kg [3] was 57%.
Work on `Cc1ccc(C[S+]([O-])c2ncc[nH]2)c(NCC(C)C)c1` (stereo not shown) [Example No. 47, 2-[(2-isobutylamino-4-methyl)benzylsulfinyl]imidazole] yielded an inhibition in vivo at 1 mg/kg [3] of 87%.
`CC(C)CNc1ccccc1C[S+]([O-])c1ncc[nH]1` (stereo not shown) [Example No. 10, 2-[(2-isobutylamino)benzylsulfinyl]imidazole] was tested, and the inhibition at 200 µM [4] was 97.2%, the “Suppresive action … (%)” value ([2]; 10 mg/kg) was 56.2% and the “Suppresive action … (%)” value ([2]; 30 mg/kg) was 87.0%. For the same compound, the inhibition in vivo at 3 mg/kg [3] was 81%, the “Acute toxicity: noticeable change” value [5] was “no noticeable change” and the “Acute toxicity: noticeable change” value [6] was “no noticeable change”.
`CNc1ccccc1C[S+]([O-])c1nc(C)c[nH]1` (stereo not shown) [Example No. 37, 4-methyl-2-[(2-methylamino)benzylsulfinyl]imidazole] showed an inhibition in vivo at 3 mg/kg [3] of 50%.
With `CC(C)CNc1ccccc1CSc1ncc[nH]1` [Example No. 9, 2-[(2-isobutylamino)benzylthio]imidazole] the inhibition in vivo at 3 mg/kg [3] was 11%.
For `CNc1ccc(C)cc1C[S+]([O-])c1ncc[nH]1` (stereo not shown) [Example No. 14, 2-[(5-methyl-2-methylamino)benzylsulfinyl]imidazole], the inhibition at 200 µM [4] was 90.8%, the “Suppresive action … (%)” value ([2]; 10 mg/kg) was 82.2% and the “Suppresive action … (%)” value ([2]; 30 mg/kg) was 98.6%. It also gave an inhibition in vivo at 3 mg/kg [3] of 97%.
